Measurements as given in article PMC9973354 (mBio, 2022).

How the values were obtained:
Type in all cases: cell-based, Pseudomonas aeruginosa
[1] = tested on: PA14 ΔfpvA ΔfpvB ΔfiuA ΔfoxA pHERD20T-fpvB R191A; assay: Growth of quadruple mutant expressing FpvB R191A; conditions: 10:90 + 2% arabinose
Experimental: (§1) Site-directed mutagenesis was used to confirm the docking predictions and to define the molecular determinants for ligand uptake through FpvB (Fig. 4C). We generated 17 single amino acid substitutions in FpvB and expressed each of them in trans in the quadruple ΔfpvA ΔfpvB ΔfiuA ΔfoxA mutant. Their ability to complement growth of the mutant in the presence of ferrichrome and ferrioxamine B and to restore TS susceptibility was assessed. […] The mutant transporters were tagged with a C-terminal FLAG tag to evaluate expression levels. FLAG-tagged FpvB mutants had WT levels of expression except for Y216T and W347V, which were expressed at 140% and 25% of WT, respectively.
(§2) The ΔfpvA ΔfpvB ΔfiuA ΔfoxA mutant was complemented with WT fpvA, fpvB, fiuA, and foxA in trans as controls (Fig. 4E).
(§3) MIC assays were conducted as previously described ([13], [14]). Overnight cultures were grown in LB from a glycerol stock at 37°C with shaking (200 rpm). Subcultures in 10:90 (1:100 dilution) were cultured for 4 h. Cells were adjusted to an optical density at 600 nm (OD600) of 0.1/500 in 10:90. All compounds were serially diluted 2-fold in dimethyl sulfoxide (DMSO) or H2O at 75× the final concentration. […] The next day, the OD600 was determined with a plate reader (Thermo Scientific) and normalized to percent of growth of the vehicle control after subtracting the OD600 from blank media.

[2] = tested on: PA14 ΔfpvA ΔfpvB ΔfiuA ΔfoxA pHERD20T-fpvB Y216T; assay: Growth of quadruple mutant expressing FpvB Y216T; conditions: 10:90 + 2% arabinose
Experimental: as §1, §2, §3

[3] = tested on: PA14 ΔfpvA ΔfpvB ΔfiuA ΔfoxA pHERD20T-fpvB D219A; assay: Growth of quadruple mutant expressing FpvB D219A; conditions: 10:90 + 2% arabinose
Experimental: as §1, §2, §3

PA14 ΔfpvB ΔfoxA mutants = assay: Growth phenotypes of deletion mutants, ΔfpvB ΔfoxA; conditions: 10 μg/mL ferrioxamine B, 10:90
From the text: PA14, ΔfpvA, ΔfpvB, and ΔfpvA ΔfpvB strains treated with TS (A) and DSX (B) in 10:90. Green indicates growth, and white indicates no growth. Growth is expressed as percent of control. The PA14 ΔfpvA ΔfpvB strain complemented with pHERD20T, fpvA, or fpvB treated with TS (C) and DSX (D) in 10:90. […] All experiments are averaged from three independent biological replicates. Blue indicates growth and white indicates no growth. (H) Summary of growth phenotypes of WT PA14 and combinations of single, double, triple, and quadruple deletion mutants in fpvA, fpvB, fiuA, and foxA. […] Green indicates growth, whereas no growth is indicated in white. […] Representative plates are shown.
If there were no transporters for a particular siderophore, the mutant would fail to grow due to iron restriction.

## CC(=O)N(O)CCCCCNC(=O)CCC(=O)N(O)CCCCCNC(=O)CCC(=O)N(O)CCCCCN [ferrioxamine B]
[1]
  growth in the presence of siderophore: prevented growth
[2]
  growth in the presence of siderophore: prevented growth
[3]
  growth in the presence of siderophore: prevented growth
PA14 ΔfpvB ΔfoxA mutants
  growth in the presence of compound: failed to grow
